# Measurements published in ChEMBL document CHEMBL1158516, “Synthesis and application of a photoaffinity analog of dehydroepiandrosterone (DHEA)” (Bioorg Med Chem Lett, 2010).
# Calls of active or inactive are those of the source. No cut-off for these calls is given here.
# System: Endothelial cell
# Test: Binding affinity to DHEA receptor in bovine aortic endothelial cells exposed to UV for 15 mins at 5 nM after 1 hr by chemiluminescence
# Type: cell-based
# Details: Bos taurus
row,Structure (SMILES),Activity
1,C[C@]12CC[C@H](O)CC1=CC[C@@H]1[C@@H]2CC[C@]2(C)/C(=N/OCC(=O)NCCCCCCNC(=O)[C@H](CCCCNC(=O)CCCC[C@@H]3SC[C@@H]4NC(=O)N[C@@H]43)NC(=O)c3ccc(C(=O)c4ccccc4)cc3)CC[C@@H]12,Active
2,O=C(CCCC[C@@H]1SC[C@@H]2NC(=O)N[C@@H]21)NCCCC[C@H](NC(=O)c1ccc(C(=O)c2ccccc2)cc1)C(=O)O,inactive
